According to patent US12721823B2, “Methods and compositions for treatment of low circulating testosterone conditions” (University of Florida Research Foundation, Inc., priority 2021, dated 2026):

Tests used:
KCC2 = assay: Immunofluorescence of cell surface KCC2 expression in the PVN of the hypothalamus; format: in vivo, rat; settings: G1 male rats; 1 h after last exposure on P60; vs control
Procedure: Rats were anesthetized with sevoflurane and transcardially perfused with saline, followed by 4% paraformaldehyde (PFA) in 0.1 M phosphate buffer. The brains were collected and fixed in the 4% PFA overnight and then dehydrated in 30% sucrose solution in PBS at 4° C. for 2 days. The brains were cut into 18-um-thick coronal sections using a cryostat. After blocking with 10% norm goat serum for 1 h at room temperature, the slices were incubated with the primary antibody (rabbit anti-KCC2, 1:500; MilliporeSigma, Burlington, MA) in 10% norm goat serum at 4° C. overnight. After washing with PBS for 3×5 min, the slices were exposed to the secondary antibody, Alexafluor 549 goat anti-rabbit (Invitrogen, Carlsbad, CA). […] The immunofluorescence intensity of the KCC2-immunoreactive cells was measured using ImageJ software [National Institutes of Health (NIH)]. Three images from the PVN of the hypothalamus of each animal were taken and the average intensity values were calculated to use for statistical analysis. […] (FIGS. 2C-2F) Representative confocal images and quantitative analysis of the KCC2 immunoreactivity in the paraventricular nucleus (PVN) of the hypothalamus of the control and sevoflurane-exposed male (FIGS. 2C, 2E) and female (FIGS. 2D, 2F) rats. […]

Sprague-Dawley rats = assay: Acute serum corticosterone 1 h after last sevoflurane exposure (ELISA); format: in vivo, rat; settings: sevoflurane 3 h on P56, P58, P60, 1 h after last exposure, vs control
Procedure: Male and female rats in Generation 1 (G1) underwent anesthesia on postnatal days 56, 58 and 60. During this period, rats were held in a temperature-controlled chamber (+37° C.) with a continuous supply of 30% oxygen in air (1.5 L/min) during anesthesia-6% sevoflurane for 3 min for anesthesia induction and 2.1% sevoflurane for 177 min for anesthesia maintenance (the Sevoflurane group). Gas monitoring was performed using a calibrated Datex side stream analyzer (Datex-Ohmeda, Helsinki, Finland), which samples from the animal chamber interior. Rats in the G1 control group (Control) were not subjected to anesthesia. A subset of the rats in the G1 Control and Sevoflurane groups was sacrificed 1 h after the last exposure to sevoflurane (or equivalent timepoint in the Control group) to collect blood and brain tissue samples. FIG. 1 provides a schematic of experimental design. The remaining Control and Sevoflurane G1 male and female rats were mated on P85 to produce offspring (generation 2, G2). […] Serum corticosterone was measured using commercial ELISA kits (Cayman Chemical Company, Ann Arbor, MI, USA) according to the manufacturer's instructions. […] (FIGS. 2C-2F) Representative confocal images and quantitative analysis of the KCC2 immunoreactivity in the paraventricular nucleus (PVN) of the hypothalamus of the control and sevoflurane-exposed male (FIGS. 2C, 2E) and female (FIGS. 2D, 2F) rats. […]

## FCOC(C(F)(F)F)C(F)(F)F [sevoflurane, 1,1,1,3,3,3-hexafluoro-2-(fluoromethoxy)propane]
KCC2
  cell surface KCC2 expression (KCC2 density) in the PVN of the hypothalamus: reductions in KCC2 density
Sprague-Dawley rats; G1 female rats
  serum levels of corticosterone: significantly increased
Sprague-Dawley rats; G1 male rats
  serum levels of corticosterone: significantly increased
